The nature of assay [1]: 3-oil screening trial, 35 days, broilers with cocci stress. The assay is classed as in vivo, Cobb 500 cockerels. As to conditions: 0.75 pounds per ton of feed. The text has this: 640 1-day-old Cobb 500 cockerels were wing banded, weighed and randomly assigned to pens on the day of delivery. Each pen was 3 feet wide by 2 feet long by 2 feet tall holding 10 birds each; density was 0.6 sq. ft. per bird. The pens were contained within two battery cages in a single barn, each with battery cage having 4 levels and 8 pens per level for a total of 32 pens per battery. The experimental period was 35 days divided into three (3) feeding stages, starter, grower and finisher. Bird weight, average daily gain (ADG), average daily feed intake (ADFI), feed to gain (FG) and Coccidiosis oocyte counts were determined at each period. This study was performed with a large number of treatments in order to screen a number of possible treatments for further future investigations. […]

The nature of assay [2]: ORAC against hydroxyl radicals. As to conditions: trolox equivalents. The text has this:
(§1) Table 4 illustrates the ORAC scores for oregano essential oil (Origanum vulgare), thyme essential oil (Thymus vulgaris), cinnamaldehyde, and ActiFibe (50 wt. % larch arabinogalactan, 50 wt. % water) against 5 of the most common detrimental ROS: peroxyl radicals (RO2), hydroxyl radicals (OH^−1), peroxynitrate (ONO2^−1; H2O2+NO2^−1), superoxide anion (O2^−1), and singlet oxygen (O2). Results are expressed as trolox equivalents (TE/100 g) for each composition: […]

A short description of assay [3]: Total ORAC over the five ROS. As to conditions: sum over the five oxygen species.
Text: as §1

Assay [4] in a line: ORAC against peroxynitrite. As to conditions: trolox equivalents.
Text: as §1

Assay [5] in a line: ORAC against peroxyl radicals. The settings on record: trolox equivalents.
Text: as §1

Assay [6] is described as follows: ORAC against singlet oxygen. As to conditions: trolox equivalents.
Text: as §1

Assay [7] can be described thus: ORAC against superoxide anion. The settings on record: trolox equivalents.
Text: as §1

`O=CC=Cc1ccccc1` [Cinnamaldehyde, cinnamaldehyde]: in assay [1], the “Average bird weights at 35 days” value turned out to be 2180.2 grams. In addition, the “Oxygen Radical Absorbance Capacity, Hydroxyl radical” value in assay [2] is on record as 49,300 TE/100 g. For the same molecule, the “Total ORAC” value in assay [3] is on record as 1,141,300 TE/100 g. The “Oxygen Radical Absorbance Capacity, Peroxynitrite” value in assay [4] was 3,500 TE/100 g. For the same molecule, the “Oxygen Radical Absorbance Capacity, Peroxyl radical” value in assay [5] is 18,800 TE/100 g. The “Oxygen Radical Absorbance Capacity, Singlet oxygen” value in assay [6] is on record as 90,800 TE/100 g. The “Oxygen Radical Absorbance Capacity, Superoxide anion” value in assay [7] is listed as 978,900 TE/100 g.

The record behind these values is patent US10342839B2, “Essential oil compositions and applications utilizing essential oils” (Ralco Nutrition, Inc., priority 2015, dated 2019).
